As a reminder, the IC50 is the point on the concentration scale where inhibition reaches its midpoint. Read a high IC50 as lower potency.

One compound from ChEMBL document CHEMBL3352619, “Design, synthesis and biological evaluation of novel 6,7-disubstituted-4-phenoxyquinoline derivatives bearing 4-oxo-3,4-dihydrophthalazine-1-carboxamide moieties as c-Met kinase inhibitors” (Bioorg Med Chem, 2014) can be followed below.

The test system of one experiment is MDA-MB-231. Description: cells. Conditions: Homo sapiens, MDA-MB-231, 72 h.
The target in experiment [1] is Platelet-derived growth factor receptor alpha (Homo sapiens, UniProt P16234). Description: Inhibition of PDGFRalpha (unknown origin) after 30 mins using poly (Glu,Tyr)4:1 substrate.
Chain of Platelet-derived growth factor receptor alpha (P16234 whole entry): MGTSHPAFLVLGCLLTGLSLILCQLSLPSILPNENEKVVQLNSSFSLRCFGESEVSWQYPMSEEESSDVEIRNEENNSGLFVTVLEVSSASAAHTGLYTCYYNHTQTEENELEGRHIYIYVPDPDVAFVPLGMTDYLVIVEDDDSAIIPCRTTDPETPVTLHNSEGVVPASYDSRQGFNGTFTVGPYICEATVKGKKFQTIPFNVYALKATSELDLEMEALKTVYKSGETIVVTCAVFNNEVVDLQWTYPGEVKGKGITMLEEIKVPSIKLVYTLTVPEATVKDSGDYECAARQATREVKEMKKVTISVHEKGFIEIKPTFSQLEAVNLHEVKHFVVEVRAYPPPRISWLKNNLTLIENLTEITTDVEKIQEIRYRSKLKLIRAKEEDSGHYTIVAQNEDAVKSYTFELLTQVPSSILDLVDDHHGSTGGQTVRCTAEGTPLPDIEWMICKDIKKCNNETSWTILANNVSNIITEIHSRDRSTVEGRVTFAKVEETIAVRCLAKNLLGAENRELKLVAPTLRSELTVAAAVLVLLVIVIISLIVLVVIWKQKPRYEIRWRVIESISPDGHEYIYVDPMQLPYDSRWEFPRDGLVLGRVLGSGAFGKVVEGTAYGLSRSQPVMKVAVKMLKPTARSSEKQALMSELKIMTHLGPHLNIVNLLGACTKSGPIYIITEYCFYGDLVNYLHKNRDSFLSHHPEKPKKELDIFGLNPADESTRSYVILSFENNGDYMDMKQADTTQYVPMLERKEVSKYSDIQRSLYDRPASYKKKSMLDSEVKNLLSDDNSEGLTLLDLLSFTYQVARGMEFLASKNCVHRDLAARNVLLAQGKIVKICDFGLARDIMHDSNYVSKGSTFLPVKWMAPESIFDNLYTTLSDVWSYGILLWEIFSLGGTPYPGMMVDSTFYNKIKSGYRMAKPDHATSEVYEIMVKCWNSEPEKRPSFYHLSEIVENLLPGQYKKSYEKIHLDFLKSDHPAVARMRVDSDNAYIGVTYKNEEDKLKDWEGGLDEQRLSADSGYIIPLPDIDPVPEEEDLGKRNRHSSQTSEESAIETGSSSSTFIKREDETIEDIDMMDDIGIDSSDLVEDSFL
Experiment [2] concerns the target Vascular endothelial growth factor receptor 2 (Homo sapiens, UniProt P35968). Description: Inhibition of VEGFR2 (unknown origin) after 30 mins using poly (Glu,Tyr)4:1 substrate.
In experiment [3] the target is Hepatocyte growth factor receptor (Homo sapiens, UniProt P08581). Description: Inhibition of c-Met (unknown origin) after 30 mins using poly (Glu,Tyr)4:1 substrate.
Chain of Hepatocyte growth factor receptor (P08581 whole entry): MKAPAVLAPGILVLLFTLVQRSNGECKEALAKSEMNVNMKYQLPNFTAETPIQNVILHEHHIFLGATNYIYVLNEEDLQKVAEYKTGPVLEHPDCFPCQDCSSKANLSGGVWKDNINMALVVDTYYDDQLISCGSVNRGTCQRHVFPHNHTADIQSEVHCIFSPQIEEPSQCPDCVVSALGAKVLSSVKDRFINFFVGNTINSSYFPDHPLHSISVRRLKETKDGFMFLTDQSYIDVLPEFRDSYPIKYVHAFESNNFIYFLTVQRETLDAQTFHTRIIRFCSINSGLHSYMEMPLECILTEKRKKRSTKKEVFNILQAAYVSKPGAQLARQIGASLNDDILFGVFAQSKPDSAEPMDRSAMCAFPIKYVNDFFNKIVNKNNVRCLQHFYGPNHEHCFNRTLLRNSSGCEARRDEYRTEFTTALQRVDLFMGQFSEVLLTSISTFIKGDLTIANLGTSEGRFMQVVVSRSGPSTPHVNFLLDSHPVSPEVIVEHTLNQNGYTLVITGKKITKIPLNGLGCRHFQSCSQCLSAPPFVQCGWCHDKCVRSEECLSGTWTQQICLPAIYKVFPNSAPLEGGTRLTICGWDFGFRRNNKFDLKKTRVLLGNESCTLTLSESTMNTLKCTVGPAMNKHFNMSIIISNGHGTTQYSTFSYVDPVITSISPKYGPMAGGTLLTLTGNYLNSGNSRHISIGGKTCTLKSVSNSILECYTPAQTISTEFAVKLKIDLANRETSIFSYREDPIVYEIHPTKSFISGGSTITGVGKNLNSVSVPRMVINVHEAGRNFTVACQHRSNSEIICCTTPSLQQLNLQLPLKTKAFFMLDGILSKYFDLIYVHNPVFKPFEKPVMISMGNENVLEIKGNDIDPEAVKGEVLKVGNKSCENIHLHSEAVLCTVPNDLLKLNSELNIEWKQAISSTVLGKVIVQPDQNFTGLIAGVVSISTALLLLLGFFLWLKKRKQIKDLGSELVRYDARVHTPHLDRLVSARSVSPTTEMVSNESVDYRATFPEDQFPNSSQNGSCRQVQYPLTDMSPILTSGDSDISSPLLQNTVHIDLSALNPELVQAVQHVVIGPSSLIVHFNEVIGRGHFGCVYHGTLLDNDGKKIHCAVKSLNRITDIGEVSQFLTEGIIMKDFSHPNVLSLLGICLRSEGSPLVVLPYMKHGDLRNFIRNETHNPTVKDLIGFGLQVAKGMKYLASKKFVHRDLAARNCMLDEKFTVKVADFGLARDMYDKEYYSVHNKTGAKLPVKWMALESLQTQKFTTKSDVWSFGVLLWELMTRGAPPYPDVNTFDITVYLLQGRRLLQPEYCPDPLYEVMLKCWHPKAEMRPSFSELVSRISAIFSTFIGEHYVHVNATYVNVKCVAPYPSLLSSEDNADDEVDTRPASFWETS
A short description of experiment [4]: Cytotoxicity against human H460 cells after 72 hrs by MTT assay. Particulars: NCI-H460, 72 h. In general terms: Tetrazolium assays rely on reduction of a dye to a coloured formazan, in cell work by metabolically active cells.
Experiment [5] addresses Mast/stem cell growth factor receptor Kit (Homo sapiens, UniProt P10721). Put plainly: Inhibition of c-KIT (unknown origin) after 30 mins using poly (Glu,Tyr)4:1 substrate.
A short description of experiment [6]: Cytotoxicity against human MKN45 cells after 72 hrs by MTT assay. Particulars: MKN-45, 72 h.
Experiment [7] concerns the target Epidermal growth factor receptor (Homo sapiens, UniProt P00533). Put plainly: Inhibition of EGFR (unknown origin) after 30 mins using poly (Glu,Tyr)4:1 substrate.
Another experiment deals with HT-29. Description: Cytotoxicity against human HT-29 cells after 72 hrs by MTT assay. Particulars: HT-29, 72 h.
Experiment [8] deals with T1, Receptor-type tyrosine-protein kinase FLT3 (Homo sapiens, UniProt P36888).
T1 sequence (P36888 whole entry): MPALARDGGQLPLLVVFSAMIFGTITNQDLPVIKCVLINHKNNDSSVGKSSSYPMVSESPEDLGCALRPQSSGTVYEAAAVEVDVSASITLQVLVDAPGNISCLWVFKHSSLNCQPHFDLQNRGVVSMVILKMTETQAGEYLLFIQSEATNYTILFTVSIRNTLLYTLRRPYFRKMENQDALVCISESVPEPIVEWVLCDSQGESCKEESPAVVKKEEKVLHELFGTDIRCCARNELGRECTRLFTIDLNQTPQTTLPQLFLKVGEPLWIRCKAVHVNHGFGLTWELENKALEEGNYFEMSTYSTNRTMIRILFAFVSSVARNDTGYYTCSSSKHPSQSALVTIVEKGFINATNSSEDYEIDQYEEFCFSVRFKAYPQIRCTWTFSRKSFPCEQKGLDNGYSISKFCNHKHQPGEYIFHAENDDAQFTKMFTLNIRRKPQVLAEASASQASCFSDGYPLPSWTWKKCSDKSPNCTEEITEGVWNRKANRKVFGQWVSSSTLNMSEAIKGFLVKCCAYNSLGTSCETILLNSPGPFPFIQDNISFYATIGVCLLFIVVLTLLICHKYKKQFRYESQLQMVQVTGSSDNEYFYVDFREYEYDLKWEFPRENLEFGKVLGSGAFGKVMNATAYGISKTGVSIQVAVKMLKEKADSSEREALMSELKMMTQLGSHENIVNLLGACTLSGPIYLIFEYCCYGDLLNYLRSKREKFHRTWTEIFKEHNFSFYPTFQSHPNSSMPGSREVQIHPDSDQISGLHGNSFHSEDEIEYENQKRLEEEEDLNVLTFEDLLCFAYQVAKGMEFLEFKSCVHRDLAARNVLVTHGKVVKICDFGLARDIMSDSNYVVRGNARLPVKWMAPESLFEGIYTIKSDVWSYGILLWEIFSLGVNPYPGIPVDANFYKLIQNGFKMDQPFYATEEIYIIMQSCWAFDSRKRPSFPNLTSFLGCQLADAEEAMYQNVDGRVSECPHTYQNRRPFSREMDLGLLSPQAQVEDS
Put plainly: Inhibition of FLT3 (unknown origin) after 30 mins using poly (Glu,Tyr)4:1 substrate.

A value given as a limit tells only on which side of the number the result lay.

Chain of Epidermal growth factor receptor (P00533 whole entry): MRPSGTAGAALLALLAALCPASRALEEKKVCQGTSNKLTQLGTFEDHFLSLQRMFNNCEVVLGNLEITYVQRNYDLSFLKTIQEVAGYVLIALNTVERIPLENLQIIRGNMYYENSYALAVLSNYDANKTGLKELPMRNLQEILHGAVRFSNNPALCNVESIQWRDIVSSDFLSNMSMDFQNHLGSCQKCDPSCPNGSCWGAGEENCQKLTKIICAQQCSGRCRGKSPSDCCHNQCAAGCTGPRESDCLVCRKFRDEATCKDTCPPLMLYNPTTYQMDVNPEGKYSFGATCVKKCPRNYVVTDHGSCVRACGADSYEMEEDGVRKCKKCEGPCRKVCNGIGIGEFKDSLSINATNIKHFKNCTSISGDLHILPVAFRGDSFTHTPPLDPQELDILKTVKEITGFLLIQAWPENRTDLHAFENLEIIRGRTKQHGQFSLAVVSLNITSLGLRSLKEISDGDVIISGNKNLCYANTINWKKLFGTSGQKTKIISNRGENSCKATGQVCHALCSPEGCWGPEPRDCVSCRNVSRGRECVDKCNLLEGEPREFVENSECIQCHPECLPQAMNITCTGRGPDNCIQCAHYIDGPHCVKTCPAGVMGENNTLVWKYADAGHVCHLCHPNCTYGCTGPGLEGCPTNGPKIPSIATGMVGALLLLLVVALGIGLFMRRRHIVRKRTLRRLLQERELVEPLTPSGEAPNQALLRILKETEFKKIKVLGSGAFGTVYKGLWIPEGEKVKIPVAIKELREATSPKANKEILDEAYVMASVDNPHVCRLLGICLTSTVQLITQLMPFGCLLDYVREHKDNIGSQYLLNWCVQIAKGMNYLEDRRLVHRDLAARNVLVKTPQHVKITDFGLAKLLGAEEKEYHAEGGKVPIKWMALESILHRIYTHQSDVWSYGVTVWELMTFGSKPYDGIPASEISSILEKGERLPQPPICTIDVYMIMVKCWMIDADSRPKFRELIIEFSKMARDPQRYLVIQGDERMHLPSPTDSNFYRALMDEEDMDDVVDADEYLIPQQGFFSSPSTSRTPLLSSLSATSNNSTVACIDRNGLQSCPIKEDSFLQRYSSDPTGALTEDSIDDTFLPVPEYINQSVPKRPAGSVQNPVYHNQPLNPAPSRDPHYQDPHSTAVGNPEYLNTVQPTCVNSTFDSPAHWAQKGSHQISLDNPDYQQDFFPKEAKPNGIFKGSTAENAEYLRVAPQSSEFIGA
Chain of Vascular endothelial growth factor receptor 2 (P35968 whole entry): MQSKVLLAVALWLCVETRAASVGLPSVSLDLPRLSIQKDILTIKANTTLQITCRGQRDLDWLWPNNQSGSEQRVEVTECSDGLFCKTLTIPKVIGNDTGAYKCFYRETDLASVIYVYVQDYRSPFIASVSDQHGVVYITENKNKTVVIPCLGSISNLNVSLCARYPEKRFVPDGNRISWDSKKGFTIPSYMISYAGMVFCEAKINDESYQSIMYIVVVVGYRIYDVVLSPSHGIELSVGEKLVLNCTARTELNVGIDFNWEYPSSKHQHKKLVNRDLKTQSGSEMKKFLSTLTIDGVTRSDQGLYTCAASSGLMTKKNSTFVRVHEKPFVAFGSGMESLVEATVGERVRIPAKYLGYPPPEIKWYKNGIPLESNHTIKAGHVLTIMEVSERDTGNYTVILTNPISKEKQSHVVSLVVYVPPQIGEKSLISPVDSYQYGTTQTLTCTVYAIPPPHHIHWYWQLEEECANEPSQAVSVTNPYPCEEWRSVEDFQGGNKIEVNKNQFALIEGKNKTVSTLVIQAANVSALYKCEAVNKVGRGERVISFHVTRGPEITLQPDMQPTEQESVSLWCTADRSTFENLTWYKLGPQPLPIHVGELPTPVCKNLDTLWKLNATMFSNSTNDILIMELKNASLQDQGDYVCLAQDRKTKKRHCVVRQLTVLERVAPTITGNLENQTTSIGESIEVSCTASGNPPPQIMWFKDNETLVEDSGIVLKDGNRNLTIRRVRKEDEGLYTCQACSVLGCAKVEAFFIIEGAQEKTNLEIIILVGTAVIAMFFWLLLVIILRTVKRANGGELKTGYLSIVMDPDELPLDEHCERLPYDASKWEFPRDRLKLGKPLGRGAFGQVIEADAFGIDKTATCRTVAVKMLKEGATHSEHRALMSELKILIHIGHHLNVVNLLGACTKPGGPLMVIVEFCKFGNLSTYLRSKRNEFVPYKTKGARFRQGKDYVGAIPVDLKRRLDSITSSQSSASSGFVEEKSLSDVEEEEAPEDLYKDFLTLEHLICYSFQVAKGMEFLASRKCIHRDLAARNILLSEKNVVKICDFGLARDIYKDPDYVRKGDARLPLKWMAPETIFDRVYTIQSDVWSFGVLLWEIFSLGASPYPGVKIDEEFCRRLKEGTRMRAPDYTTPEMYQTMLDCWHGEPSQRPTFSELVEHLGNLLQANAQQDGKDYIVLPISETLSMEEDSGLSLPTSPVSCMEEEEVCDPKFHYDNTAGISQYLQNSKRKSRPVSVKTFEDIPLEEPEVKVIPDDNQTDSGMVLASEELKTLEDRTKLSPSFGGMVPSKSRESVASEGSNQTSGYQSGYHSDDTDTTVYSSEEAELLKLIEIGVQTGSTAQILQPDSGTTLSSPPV
Description for MDA-MB-231: Cytotoxicity against human MDA-MB-231 cells after 72 hrs by MTT assay

As to `COc1cc2c(Oc3ccc(NC(=O)c4nn(-c5ccc(F)cc5)c(=O)c5ccccc45)cc3F)ccnc2cc1OCCCN1CCCC1`, the IC50 in the experiment with MDA-MB-231 came out at 430 nM; in experiment [1], 15.7 nM; in experiment [2] it was 70.4 nM; in experiment [3], 1.63 nM; in [4], 55 nM; in experiment [5], 2.17 nM. Besides, the IC50 in experiment [6] is 71 nM; in experiment [7], over 10000 nM; in the experiment on HT-29, 130 nM; in [8] it was 3.49 nM.
